These results are taken from PubChem BioAssay AID735 (The Scripps Research Institute Molecular Screening Center, 2007).

For the test, the target named is Collagenase 3 (Homo sapiens) (UniProt P45452). Briefly: human MMP13 inhibitors, potency, dose response, biochemical (AID 735). The settings on record: recombinant MMP13 enzymatic activity assay.

Structures are written as SMILES. The source made the active and inactive calls. The rule behind the calls is not given here.

With `COc1cc(-n2nc(C)c3c2OC(N)=C(C#N)C3c2ccccc2)c(Cl)c(Br)c1O` (configuration not stated), the IC50 (in general, the concentration at which inhibition is half-maximal) was > 39.8 µM (inactive).
With `CCOC(=O)/C(C#N)=C1/C=Nc2ccccc2N1`, the IC50 result is “inactive”.
